According to publication PMC10600247, “Impact of C- and N-terminal protection on the stability, metal chelation and antimicrobial properties of calcitermin” (Scientific Reports, 2023):
Residues, ends and D or L forms follow the SMILES beside them.

Experiments:
[1] = in vitro; details: human, pH 7.4
Description: Each peptide (C = 1·10^–4 M) and metal complex (metal:ligand ratio 1:1) was incubated in a sample containing 1 ml of human plasma (obtained as a pool of 40 individuals from the University Hospital of Ferrara) and 1 ml of ammonium acetate buffer (pH 7.4) at 37 °C. L-phenylalaninol is added as internal standard. At regular time intervals, 200 μl aliquots were taken and enzymatic reaction was blocked by adding 300 μl of HClO4 0.5 M. The sample was then centrifugated for 6 min at 14,000 × g. The supernatant was then filtered and analysed by HPLC. The analytical column was an Agilent Poroshell 120 SB-C18 (4.6 × 100 mm, 2.7 μm, pore size 120 Å). Flow rate = 0.5 ml/min, mobile phase H2O + 0.1% v/v TFA, linear gradient from 0 to 60% of acetonitrile + 0.1% v/v TFA over 30 min for the elution of peptides, temperature 25 °C, detection wavelength 210 nm. […] Informed consent was obtained from all subjects and/or their legal guardian(s) prior to the donation of blood samples. All experimental protocols were approved by the National Research and Research Transversal Processes boards at University of Ferrara. All methods were carried out in accordance with relevant guidelines and regulations.

[2] = system: C. albicans (ATCC 10231); assay: In vitro antifungal CFU assay; type: cell-based, Candida albicans; details: pH 5.4; for mean CFU number ± S.D.: per 0.1 mL
Description: (§1) All microbes were grown at 37 °C in Tryptic Soy Broth (TSB; Biolife, Milan, Italy) or Tryptic Soy Agar plates (TSA, Biolife, Milan, Italy). Peptides were tested at a final concentration C = 0.128, 0.064, 0.032 mg/mL, in the presence or absence of ZnCl2 or CuCl2, at a M:L molar ratio 0.9:1. Briefly, all the microbes were expanded in TSB at 37 °C under agitation for 12 h and then sub-cultured by 1:10 dilution in TSB under the same conditions until reaching OD600nm = 0.3–0.4, as measured by spectrophotometric reading using a GENESYS 10S UV–Vis spectrophotometer (Thermo Scientific, Milan, Italy), corresponding to 0.9–1.2 × 10^7 colony forming units (CFU) per mL, 1.5–2 × 10^8 CFU/mL and 2.4–3.2 × 10^8 CFU/mL, for C. albicans, S. aureus and E. coli respectively. The cultures were then centrifuged at 4500 rpm for 10 min in a SL 8 centrifuge (TX-150 Rotor) (Thermo Scientific, Milan, Italy), and the cellular pellets were washed with PBS pH 5.4. Pelletized cultures were then suspended in 10 mL of PBS pH 5.4, then the suspensions were diluted to a final concentration of 10^4 CFU/mL. Aliquots of 100 µl (corresponding to 10^3 CFU) were seeded in each well of a 96-wells plate. 3 µl of TSB at pH 5.4 were added to each well to obtain a final 1.5% TSB concentration in the culture medium. Peptides were serially diluted in PBS pH 5.4 to C = 0.257, 0.128, and 0.064 mg/mL. ZnCl2 and CuCl2 solutions were added where requested to obtain a M:L ratio 0.9:1. 100 µl of the prepared peptides ± ZnCl2/CuCl2 solutions were then added to each well, obtaining the final 0.128, 0.064 and 0.032 mg/mL peptide concentrations in a total 0.2 mL volume. PBS alone and PBS + ZnCl2/CuCl2 solutions were included as controls. The plates were incubated at 37 °C on a platform rocker with slow stirring for 3 and 24 h. At the end of the incubation times, 100 µl aliquots were taken from each sample and diluted in PBS pH 5.4 to be seeded on TSA plates. Specifically, aliquots were diluted 1:10 at 3 h, and 1:200, 1:100,000 and 1:10 at 24 h, for C. albicans, E. coli, and S. aureus respectively. After incubation for 24 h at 37 °C, grown CFUs were enumerated. Samples were assayed in triplicate in two independent experiments. Student’s t-test was used for the evaluation of significance in biological tests; a p value ≤ 0.05 was considered significant.

[3] = system: S. aureus (ATCC 25293); assay: In vitro anti-S. aureus CFU assay; type: cell-based, Staphylococcus aureus; details: 3 h, pH 5.4; for mean CFU number ± S.D.: per 0.1 mL
Description: as §1

[4] = peptide 0.032 mg/mL + CuCl2 (0.9:1), 3 h
[5] = peptide 0.032 mg/mL + CuCl2 (0.9:1), 24 h
[6] = peptide 0.032 mg/mL + ZnCl2 (0.9:1), 3 h
[7] = peptide 0.032 mg/mL + ZnCl2 (0.9:1), 24 h
[8] = peptide 0.064 mg/mL + CuCl2 (0.9:1), 3 h
[9] = peptide 0.064 mg/mL + CuCl2 (0.9:1), 24 h
[10] = peptide 0.064 mg/mL + ZnCl2 (0.9:1), 3 h
[11] = peptide 0.064 mg/mL + ZnCl2 (0.9:1), 24 h
[12] = peptide 0.128 mg/mL + CuCl2 (0.9:1), 3 h
[13] = peptide 0.128 mg/mL + CuCl2 (0.9:1), 24 h
[14] = peptide alone 0.032 mg/mL, 24 h
[15] = peptide alone 0.064 mg/mL, 24 h
[16] = peptide alone 0.128 mg/mL, 24 h
[17] = peptide 0.032 mg/mL + CuCl2 (0.9:1)
[18] = peptide 0.032 mg/mL + ZnCl2 (0.9:1)
[19] = peptide 0.064 mg/mL + CuCl2 (0.9:1)
[20] = peptide 0.064 mg/mL + ZnCl2 (0.9:1)
[21] = peptide 0.128 mg/mL + CuCl2 (0.9:1)

SMILES: CC[C@H](C)[C@H](NC(=O)[C@H](C)NC(=O)[C@@H](N)C(C)C)C(=O)N[C@@H](C)C(=O)N[C@@H](CC(C)C)C(=O)N[C@@H](CCCCN)C(=O)N[C@@H](C)C(=O)N[C@@H](C)C(=O)N[C@@H](Cc1c[nH]cn1)C(=O)N[C@@H](Cc1ccc(O)cc1)C(=O)N[C@@H](Cc1c[nH]cn1)C(=O)N[C@H](C(=O)N[C@@H](Cc1c[nH]cn1)C(=O)N[C@@H](CCCCN)C(=O)N[C@@H](CCC(=O)O)C(=O)O)[C@@H](C)O [WT, VAIALKAAHYHTHKE, reference compound] (H-VAIALKAAHYHTHKE-OH)
- half-life [1]: 18 ± 3 min
- CFU decrease/increase with respect to untreated controls [2, 4]: -12%
- mean CFU number ± S.D. [2, 4]: 74 ± 28 CFU
- CFU decrease/increase with respect to untreated controls [2, 5]: -0.4%
- mean CFU number ± S.D. [2, 5]: 1,771 ± 309 CFU
- CFU decrease/increase with respect to untreated controls [2, 6]: -20%
- mean CFU number ± S.D. [2, 6]: 67 ± 35 CFU
- CFU decrease/increase with respect to untreated controls [2, 7]: -31%
- mean CFU number ± S.D. [2, 7]: 1,235.8 ± 235 CFU
- CFU decrease/increase with respect to untreated controls [2, 8]: +1%
- mean CFU number ± S.D. [2, 8]: 85 ± 24 CFU
- CFU decrease/increase with respect to untreated controls [2, 9]: -16%
- mean CFU number ± S.D. [2, 9]: 1,489 ± 111 CFU
- CFU decrease/increase with respect to untreated controls [2, 10]: -43%
- mean CFU number ± S.D. [2, 10]: 48.3 ± 22 CFU
- CFU decrease/increase with respect to untreated controls [2, 11]: -58%
- mean CFU number ± S.D. [2, 11]: 754.3 ± 323 CFU
- CFU decrease/increase with respect to untreated controls [2, 12]: -35%
- mean CFU number ± S.D. [2, 12]: 55 ± 11 CFU
- CFU decrease/increase with respect to untreated controls [2, 13]: -0.6%
- mean CFU number ± S.D. [2, 13]: 1,790 ± 393 CFU
- CFU decrease/increase with respect to untreated controls ([2]; peptide 0.128 mg/mL + ZnCl2 (0.9:1), 3 h, listed as WT calcitermin): -49%
- mean CFU number ± S.D. ([2]; peptide 0.128 mg/mL + ZnCl2 (0.9:1), 3 h): 42.7 ± 11 CFU
- CFU decrease/increase with respect to untreated controls ([2]; peptide 0.128 mg/mL + ZnCl2 (0.9:1), 24 h, listed as WT calcitermin): -96%
- mean CFU number ± S.D. ([2]; peptide 0.128 mg/mL + ZnCl2 (0.9:1), 24 h): 62.8 ± 33 CFU
- CFU decrease/increase with respect to untreated controls ([2]; peptide alone 0.032 mg/mL, 3 h, listed as WT calcitermin): -67%
- mean CFU number ± S.D. ([2]; peptide alone 0.032 mg/mL, 3 h): 28 ± 15 CFU
- CFU decrease/increase with respect to untreated controls [2, 14]: -24%
- mean CFU number ± S.D. [2, 14]: 1,348± 698 CFU
- CFU decrease/increase with respect to untreated controls ([2]; peptide alone 0.064 mg/mL, 3 h, listed as WT calcitermin): -67%
- mean CFU number ± S.D. ([2]; peptide alone 0.064 mg/mL, 3 h): 28 ± 15 CFU
- CFU decrease/increase with respect to untreated controls [2, 15]: -33%
- mean CFU number ± S.D. [2, 15]: 1,289 ± 495 CFU
- CFU decrease/increase with respect to untreated controls ([2]; peptide alone 0.128 mg/mL, 3 h, listed as WT calcitermin): -73%
- mean CFU number ± S.D. ([2]; peptide alone 0.128 mg/mL, 3 h): 22.4 ± 15 CFU
- CFU decrease/increase with respect to untreated controls [2, 16]: -41%
- mean CFU number ± S.D. [2, 16]: 1,052 ± 531 CFU
- CFU decrease/increase with respect to untreated controls [3, 17]: +30%
- mean CFU number ± S.D. [3, 17]: 209 ± 44 CFU
- CFU decrease/increase with respect to untreated controls [3, 18]: +5%
- mean CFU number ± S.D. [3, 18]: 169 ± 40 CFU
- CFU decrease/increase with respect to untreated controls [3, 19]: +9%
- mean CFU number ± S.D. [3, 19]: 175 ± 30 CFU
- CFU decrease/increase with respect to untreated controls [3, 20]: -14%
- mean CFU number ± S.D. [3, 20]: 139 ± 20 CFU
- CFU decrease/increase with respect to untreated controls [3, 21]: +42%
- mean CFU number ± S.D. [3, 21]: 229 ± 55 CFU
- CFU decrease/increase with respect to untreated controls ([3]; peptide 0.128 mg/mL + ZnCl2 (0.9:1), listed as WT calcitermin): -41%
- mean CFU number ± S.D. ([3]; peptide 0.128 mg/mL + ZnCl2 (0.9:1)): 96 ± 21 CFU
- CFU decrease/increase with respect to untreated controls ([3]; peptide alone 0.032 mg/mL): -9.3%
- mean CFU number ± S.D. ([3]; peptide alone 0.032 mg/mL): 146 ± 7 CFU
- CFU decrease/increase with respect to untreated controls ([3]; peptide alone 0.064 mg/mL): -1.2%
- mean CFU number ± S.D. ([3]; peptide alone 0.064 mg/mL): 159 ± 45 CFU
- CFU decrease/increase with respect to untreated controls ([3]; peptide alone 0.128 mg/mL): -1.8%
- mean CFU number ± S.D. ([3]; peptide alone 0.128 mg/mL): 158 ± 59 CFU
